In US20010053796A1, “Delta-aminolevulinic acid for prevention and treatment of infection microorganisms and parasite” (priority 2000, published 2001):
Marks after values point to notes of the source that are not given here.

Columns and labels:
Streptococcus sp. = assay: Proliferation inhibition of pathogenic bacteria in BHI broth (620 nm); assay type: cell-based; conditions: product on the market (Sigma)
Procedure: (§1) Pathogenic index bacteria used in this experiment are Edwardsiella tard, Streptococcus sp., Staphylococcus sp., Staphylococcus epidermidis, Pseudomonas sp., Vibrio anguillarum which are collected from the marine fish farm nearby Yeosu. In solid culture, they were cultured in TSA (tryptic soy agar) supplemented with 0.2% NaCl flat media and in liquid culture, they were prepared by culturing in BHI broth for 24 hrs and setting the O.D. value as 1.0. δ-aminolevulinic acid used in this experiment were one on the market (Sigma) and one formulated by inventors of the present invention (Korean patent application No. 1998-41898). Each 0.167 g δ-aminolevulinic acid were dissolved in 1.0 mL sterilized distilled water was used as undiluted solution. 1.0 M δ-aminolevulinic acid was 2-fold diluted with BHI broth by stages up to 64-fold and prepared for test solution to examine pathogenic bacteria proliferation-prohibiting effect. […] In control group, instead of δ-aminolevulinic acid, BHI broth bacteria suspension were mixed with (1:1) and then observed with the same method above. MIC assay by δ-aminolevulinic acid for major pathogenic bacteria of marine cultivating fishes, Edwardsiella tard, Streptococcus sp., Staphylococcus sp., Staphylococcus epidermidis, Pseudomonas sp., Vibrio anguillarum was carried out by flat drug disc method. 100 μL of each bacteria in a culture solution was mixed with fixed amount of top agar and coated to TSA agar. 1.0 M δ-aminolevulinic acid solution was diluted by 2 folds in PBS and 10 μL of each dilution were absorbed to sterilized disc. After incubation at 23˜25° C. for 2˜3 days, antibacterial effect was indicated by measuring the size (mm) of clear zone. In control group, PBS was absorbed into disc instead of δ-aminolevulinic acid dilution solution with the same amount and observed. From the result of this experiment using δ-aminolevulinic acid on the market, proliferation-inhibiting effects of pathogenic bacteria according to δ-aminolevulinic acid concentration are shown in Table 2a (Edwardsiella tard) and Table 2b (Streptococcus sp.). Below 1/32 fold (31 mM) of δ-aminolevulinic acid dilution rate, proliferation of both bacteria was inhibited. […] The experimental result of δ-aminolevulinic acid prepared by the inventors has shown in Table 3 and no difference in effects from δ-aminolevulinic acid on the market.

Edwardsiella tarda = assay: as above; assay type: cell-based; conditions: product on the market (Sigma)
Procedure: as §1

Vibrio anguillarum = assay: Treatment effect of infected fry by oral administration in feed; assay type: in vivo, Bastardhalibut; conditions: 50 fish
Scutica = assay: Prevention effect for Scutica artificial infection of fish body in vivo; conditions: for Mortality during Cultivation: fish number 20
Procedure: The water temperature was maintained at 20° C. (±2° C.) throughout the experiment.

Staphylococcus epidermis = assay: Prevention effect for artificial infection (abdominal injection of bacteria); assay type: in vivo, Sebastes schlegeli; conditions: for Mortality during Cultivation: dead of 20 fish
Procedure: The water temperature was maintained at 20° C. (±2° C. ) throughout the experiment. […]
Bastardhalibut and Sebastes schlegeli were infected by […] Staphylococcus epidermis through abdominal injection with the same method of fish breeding; δ-aminolevulinic acid treatment and artificial carried out in Experiment 1 and 2. Each experimental fish was moved to fish tanks for monitoring and monitored for mortality according to infection for 2 weeks. […] The treated group, with δ-aminolevulinic acid by tank administraion method and oral administration method, has shown high viability.

marine birnavirus (MABV) = assay: Change of virus infection value (TCID50) in culture cells; assay type: cell-based; conditions: for Infection value by MABV: 8 mM
Description: In this experiment, change of infection value by virus according to δ-aminolevulinic acid treatment was examined by TCID50 using fish cell line for marine birnavirus (MABV) which infects major marine cultivating fish species, Bastardhalibut, Pagrus major and Sebastes schlegeli and acts as a cause for mass mortality. The virus used in this experiment was isolated from Bastardhalibut of a fish farm nearby Yeosu. Virus infection value was checked in CHSE-214 cell and then used as experimental virus solution. Virus incubation solution and δ-aminolevulinic acid diluted solution were combined with same amount (8 mL) and reacted for 30 min. and then, inoculated to culture cell and incubated at 20° C. Temporary change of virus infection value was compared with that of HBSS reaction virus solution (control).

[1] = above 1/64 fold (16 mM) dilution rate
[2] = below 1/32 fold (31 mM) dilution rate, 24 hrs, 25° C.
[3] = Administration to fish tanks, 0.01 ppm, Bastardhalibut
[4] = Administration to fish tanks, 0.01 ppm, Sebastes schlegeli
[5] = Administration to fish tanks, 0.1 pm, Bastardhalibut
[6] = Administration to fish tanks, 0.1 pm, Sebastes schlegeli
[7] = Administration to fish tanks, 1.0 ppm, Bastardhalibut
[8] = Administration to fish tanks, 1.0 ppm, Sebastes schlegeli
[9] = Administration to fish tanks, 5.0 ppm, Bastardhalibut
[10] = Administration to fish tanks, 5.0 ppm, Sebastes schlegeli
[11] = Administration to fish tanks, 10 ppm, Bastardhalibut
[12] = Administration to fish tanks, 10 ppm, Sebastes schlegeli
[13] = Administration to fish tanks, 50 ppm, Bastardhalibut
[14] = Administration to fish tanks, 50 ppm, Sebastes schlegeli
[15] = Oral Adminstration, 0.1 ppm, Bastardhalibut
[16] = Oral Adminstration, 0.1 ppm, Sebastes schlegeli
[17] = Oral Adminstration, 1.0 ppm, Bastardhalibut
[18] = Oral Adminstration, 1.0 ppm, Sebastes schlegeli
[19] = Oral Adminstration, 5 ppm, Bastardhalibut
[20] = Oral Adminstration, 5 ppm, Sebastes schlegeli
[21] = Oral Adminstration, 10 ppm, Bastardhalibut
[22] = Oral Adminstration, 10 ppm, Sebastes schlegeli
[23] = Oral Adminstration, 50 ppm, Bastardhalibut
[24] = Oral Adminstration, 50 ppm, Sebastes schlegeli
[25] = Oral Adminstration, 100 ppm, Bastardhalibut
[26] = Oral Adminstration, 100 ppm, Sebastes schlegeli

NCC(=O)CCC(=O)O [δ-aminolevulinic acid]
proliferation of bacteria (Streptococcus sp.; [1]): no significant difference from the control group
proliferation of bacteria (Streptococcus sp.; [2]): inhibited
proliferation of bacteria (Edwardsiella tarda; [1]): no significant difference from the control group
proliferation of bacteria (Edwardsiella tarda; [2]): inhibited
Viability (Vibrio anguillarum; feed 0.1 ppm from 4th day of infection): 44%
Viability (Vibrio anguillarum; feed 1.0 ppm from 4th day of infection): 72%
Viability (Vibrio anguillarum; feed 50 ppm from 4th day of infection): 90%
Viability (Vibrio anguillarum; feed 100 ppm from 4th day of infection): 88%
Viablity (%) (Scutica; [3]): 60%
Mortality during Cultivation (Scutica; [3]): 8
Viablity (%) (Scutica; [4]): 60%
Mortality during Cultivation (Scutica; [4]): 8
Viablity (%) (Scutica; [5]): 75%
Mortality during Cultivation (Scutica; [5]): 7
Viablity (%) (Scutica; [6]): 60%
Mortality during Cultivation (Scutica; [6]): 8
Viablity (%) (Scutica; [7]): 75%
Mortality during Cultivation (Scutica; [7]): 5
Viablity (%) (Scutica; [8]): 70%
Mortality during Cultivation (Scutica; [8]): 6
Viablity (%) (Scutica; [9]): 85%
Mortality during Cultivation (Scutica; [9]): 3
Viablity (%) (Scutica; [10]): 85%
Mortality during Cultivation (Scutica; [10]): 3
Viablity (%) (Scutica; [11]): 85%
Mortality during Cultivation (Scutica; [11]): 3
Viablity (%) (Scutica; [12]): 85%
Mortality during Cultivation (Scutica; [12]): 3
Viablity (%) (Scutica; [13]): 80%
Mortality during Cultivation (Scutica; [13]): 4
Viablity (%) (Scutica; [14]): 80%
Mortality during Cultivation (Scutica; [14]): 4
Viablity (%) (Scutica; [15]): 70%
Mortality during Cultivation (Scutica; [15]): 6
Viablity (%) (Scutica; [16]): 65%
Mortality during Cultivation (Scutica; [16]): 7
Viablity (%) (Scutica; [17]): 70%
Mortality during Cultivation (Scutica; [17]): 6
Viablity (%) (Scutica; [18]): 75%
Mortality during Cultivation (Scutica; [18]): 5
Viablity (%) (Scutica; [19]): 85%
Mortality during Cultivation (Scutica; [19]): 3
Viablity (%) (Scutica; [20]): 85%
Mortality during Cultivation (Scutica; [20]): 3
Viablity (%) (Scutica; [21]): 95%
Mortality during Cultivation (Scutica; [21]): 1
Viablity (%) (Scutica; [22]): 95%
Mortality during Cultivation (Scutica; [22]): 1
Viablity (%) (Scutica; [23]): 95%
Mortality during Cultivation (Scutica; [23]): 1
Viablity (%) (Scutica; [24]): 95%
Mortality during Cultivation (Scutica; [24]): 1
Viablity (%) (Scutica; [25]): 90%
Mortality during Cultivation (Scutica; [25]): 2
Viablity (%) (Scutica; [26]): 95%
Mortality during Cultivation (Scutica; [26]): 1
Viability (Staphylococcus epidermis; orally, 0.1 ppm in feed): 50%
Mortality during Cultivation (Staphylococcus epidermis; orally, 0.1 ppm in feed): 10
Viability (Staphylococcus epidermis; orally, 1.0 ppm in feed): 50%
Mortality during Cultivation (Staphylococcus epidermis; orally, 1.0 ppm in feed): 10
Viability (Staphylococcus epidermis; orally, 10 ppm in feed): 75%
Mortality during Cultivation (Staphylococcus epidermis; orally, 10 ppm in feed): 5
Viability (Staphylococcus epidermis; orally, 100 ppm in feed): 80%
Mortality during Cultivation (Staphylococcus epidermis; orally, 100 ppm in feed): 4
Viability (Staphylococcus epidermis; to fish tanks, 0.01 ppm): 55%
Mortality during Cultivation (Staphylococcus epidermis; to fish tanks, 0.01 ppm): 9
Viability (Staphylococcus epidermis; to fish tanks, 0.1 ppm): 55%
Mortality during Cultivation (Staphylococcus epidermis; to fish tanks, 0.1 ppm): 9
Viability (Staphylococcus epidermis; to fish tanks, 1.0 ppm): 80%
Mortality during Cultivation (Staphylococcus epidermis; to fish tanks, 1.0 ppm): 4
Viability (Staphylococcus epidermis; to fish tanks, 10 ppm): 80%
Mortality during Cultivation (Staphylococcus epidermis; to fish tanks, 10 ppm): 4
Infection value by MABV (marine birnavirus (MABV); 0 days after inoculation): 4.3* Log TCID50/mL
Infection value by MABV (marine birnavirus (MABV); 1 day after inoculation): 3.8 Log TCID50/mL
Infection value by MABV (marine birnavirus (MABV); 3 days after inoculation): 3.5 Log TCID50/mL
Infection value by MABV (marine birnavirus (MABV); 5 days after inoculation): 2.3 Log TCID50/mL
Infection value by MABV (marine birnavirus (MABV); 7 days after inoculation): <1.8 Log TCID50/mL
effect on MABV within culture cell system (marine birnavirus (MABV); reacted 30 min before inoculation): inactivated
